From ChEMBL document CHEMBL2074550, “Carbamazepine is not a substrate for P-glycoprotein” (Br J Clin Pharmacol, 2001)

Columns and labels:
[1] = biological target: T1, ATP-dependent translocase ABCB1 (Homo sapiens, UniProt P08183); test: TP_TRANSPORTER: transepithelial transport (basal to apical) in Caco-2 cells; assay type: functional, cell-based
[2] = biological target: T1, ATP-dependent translocase ABCB1; test: TP_TRANSPORTER: inhibition of Rhodamine 123 efflux (R123: 1.5 ug/mL, Carbamazepine: 100 uM) in human lymphocytes; assay type: functional, cell-based; conditions: lymphocyte
[3] = biological target: P-glycoprotein 1 and 3 (MDR1a/MDR1b) (Mus musculus, UniProt P21447+P06795); test: TP_TRANSPORTER: no change in brain concentration in mdr1a/1b(-/-) mouse; assay type: functional, organism-based; conditions: in vivo

T1 sequence (P08183 whole entry): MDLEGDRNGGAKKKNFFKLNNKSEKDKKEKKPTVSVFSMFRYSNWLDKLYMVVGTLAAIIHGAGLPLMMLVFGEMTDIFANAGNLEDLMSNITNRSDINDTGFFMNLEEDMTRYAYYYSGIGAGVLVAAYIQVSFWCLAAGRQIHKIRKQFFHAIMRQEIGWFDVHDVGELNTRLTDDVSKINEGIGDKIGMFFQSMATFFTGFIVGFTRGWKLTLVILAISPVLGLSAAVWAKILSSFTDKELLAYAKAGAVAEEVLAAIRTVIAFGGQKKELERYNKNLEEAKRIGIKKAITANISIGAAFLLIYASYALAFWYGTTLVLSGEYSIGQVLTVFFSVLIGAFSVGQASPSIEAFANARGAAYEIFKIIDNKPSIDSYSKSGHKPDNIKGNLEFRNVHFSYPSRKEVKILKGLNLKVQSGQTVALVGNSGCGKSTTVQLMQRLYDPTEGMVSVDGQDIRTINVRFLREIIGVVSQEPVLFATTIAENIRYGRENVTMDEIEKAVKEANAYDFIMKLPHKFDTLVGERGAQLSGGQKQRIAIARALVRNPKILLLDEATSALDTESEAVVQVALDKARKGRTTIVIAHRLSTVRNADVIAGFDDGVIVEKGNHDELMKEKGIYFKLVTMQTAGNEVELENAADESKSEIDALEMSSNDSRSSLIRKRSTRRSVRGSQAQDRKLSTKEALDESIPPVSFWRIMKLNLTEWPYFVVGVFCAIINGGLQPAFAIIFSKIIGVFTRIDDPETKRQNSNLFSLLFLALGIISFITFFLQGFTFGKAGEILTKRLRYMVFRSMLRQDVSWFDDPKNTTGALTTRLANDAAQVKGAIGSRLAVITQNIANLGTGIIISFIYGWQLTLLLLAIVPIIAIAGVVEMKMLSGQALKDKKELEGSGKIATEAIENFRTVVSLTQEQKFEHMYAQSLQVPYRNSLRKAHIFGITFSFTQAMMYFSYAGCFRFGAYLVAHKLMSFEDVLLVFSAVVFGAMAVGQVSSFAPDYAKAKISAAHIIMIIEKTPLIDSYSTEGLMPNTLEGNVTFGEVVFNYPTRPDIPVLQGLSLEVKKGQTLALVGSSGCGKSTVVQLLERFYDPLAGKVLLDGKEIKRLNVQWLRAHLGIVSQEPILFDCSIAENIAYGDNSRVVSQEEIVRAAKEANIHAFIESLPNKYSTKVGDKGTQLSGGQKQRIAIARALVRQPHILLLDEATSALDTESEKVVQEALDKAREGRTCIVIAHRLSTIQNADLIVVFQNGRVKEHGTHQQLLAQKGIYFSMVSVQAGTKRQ

Activity [1]: is not a substrate [-]
Activity [2]: is not an inhibitor [-]
Activity [3]: is not a substrate [-]
SMILES: NC(=O)N1c2ccccc2C=Cc2ccccc21 [CARBAMAZEPINE]
